A melting point compilation (Tetko et al.; mined from patent text by program, amines drawn as free bases though some values may be those of a salt)

SMILES | melting point [°C]
Oc1ccc(-c2ncc3ncc(-c4cccnc4)cc3n2)cc1 | > 268
CCOC(=O)CC(=O)N(C)c1ccccc1N | 63 to 64
COc1cn(-c2ccc(N3CCN(C)C3=O)cc2F)nc(-c2ccnn2-c2ccccc2)c1=O | 208 to 209
O=S(=O)(c1ccccc1)N1C[C@@H](c2c[nH]c3ccccc23)[C@H](c2cn3c4c(cccc24)CCC3)C1 | 115 to 125
CCOc1ccc(C(=O)N2CCc3cc(S(=O)(=O)n4cc(-c5ccccc5)[nH]c4=O)ccc32)cc1 | 249 to 253
COc1cc(C)cc(OC)c1C1=NC(NC(=O)Nc2cccc(C)c2)C(=O)N(C)c2ccccc21 (centres undefined) | 260
O=S1c2ccccc2-c2[nH]nc(-c3ccccc3)c21 (centres undefined) | 222 to 224
COc1cc(CCC(=O)Nc2nc3ccccc3s2)ccc1C(=O)/C=C/C(=O)O | 260 to 261
Cc1ccc(C(=O)NC(=O)N2CC2C#N)cc1 (centres undefined) | 177 to 180
CCOC(=O)c1cnc2c3c(ccc2c1Cl)C(=O)C(C(C)=O)C=N3 (centres undefined) | 288 to 290
O=C(NC(Cc1ccc(OCc2ccccc2)cc1)C(=O)O)c1nc2ccc(-c3ccc(Cl)cc3)cc2[nH]1 (centres undefined) | 260 to 261
CC12CCC(O)CC1=CCC1C2CCC2(C)C(c3cncnc3)=CCC12 (centres undefined) | 231 to 233
CC(=O)NCCCCC(NC(C)=O)C(C)=O (centres undefined) | 111 to 113
N#Cc1c(N2CCN(C(=O)c3cccs3)CC2)c2cccnc2n(CC2CC2)c1=O | 189
Nc1nc2c(sc(=S)n2C2OC(COC(=O)c3ccccc3)C(OC(=O)c3ccccc3)C2OC(=O)c2ccccc2)c(=O)[nH]1 (centres undefined) | 230 to 233
CC(C)(C)OC(=O)Nc1cccc(Cn2nc(C(=O)O)c3c2-c2ccc(OCc4cncnc4)cc2CC3)c1 | 226
O=C(O)CCOc1ccccc1-c1nc(-c2ccccc2)no1 | 170 to 171
COc1ccc(/C=C/C(=O)CC(=O)/C=C/c2ccc(O)cc2Cl)cc1O | 120 to 130
COc1cc(C(O)(C(F)(F)F)C(F)(F)F)cc(C)c1NS(C)(=O)=O | 109 to 110
CN(C)C(=O)Nc1cccc(Cl)c1 | 138 to 142
O=C(O)c1c2c(nc3ccc(F)cc13)-c1ccc(-c3ccc(F)cc3)cc1CC2 | > 300
CCCOc1ccccc1-c1nc2nc(NCC(C)OC)ncc2c(=O)[nH]1 (centres undefined) | 193 to 194
Cc1ccc(Cn2c(NC3CCN(CC#N)CC3)nc3ccccc32)o1 | 177
O=C(NCc1ccc(Cl)cc1)c1cn2c3c(cc(CN4CCOCC4)cc3c1=O)OC(CN1CCCCC1)C2 (centres undefined) | 213 to 215

SMILES | melting point [°C]
CN(C)c1ccc(C(=O)NC2CCN(C(c3ccccc3)c3ccccc3)CC2)c([N+](=O)[O-])c1 | 183
O=C(NCC1CCN(C[C@H]2COc3ccc(Cl)cc3O2)CC1)c1ccccn1 | 110 to 112
CCOC(=O)/C(=N\OC1CCNC1=O)c1csc(NC(c2ccccc2)(c2ccccc2)c2ccccc2)n1 (centres undefined) | 209 to 210
CCOC(=O)C1CCN(c2ccc(N)cc2C#N)CC1 | 98
CCOc1nc(C2CC2)nc(OCC)c1C=O | 86 to 87
O=C(Nc1ccc(Br)cn1)C(CC1CCCC1)c1ccc(Cl)c([N+](=O)[O-])c1 (centres undefined) | 128 to 130
COc1ccc(C(=O)Nc2ccc(Cl)c(Cl)c2)cc1NC(=S)Nc1cc(Cl)cc(Cl)c1 | 189 to 191
O=C(O)c1ccc(S(=O)(=O)Oc2c(Br)cc(-c3ccc(-c4c(Cc5ccccc5)sc5ccccc45)cc3)cc2Br)cc1O | 192 to 194
N#Cc1cnc2c(NC(=O)c3c(Cl)cccc3Cl)cccc2c1CO | 249 to 250
NS(=O)(=O)c1ccc(-c2cc(-c3nc(-c4ccc(C(F)(F)F)cc4)cc(C(F)(F)F)n3)ccn2)s1 | 262
Cc1cnn(-c2ccc(Cl)cc2Cl)c(=O)c1Br | 108
O[C@@H]1CN(Cc2ccccc2)C[C@H]1Oc1ccccc1 (relative stereo) | 88.5 to 90
CCOC(=O)c1cn2c3c(c(C(C#N)C(=O)OCC)c(F)cc3c1=O)CCN2C (centres undefined) | 153 to 154
NCCNc1n[nH]c2ncnc(Nc3cccc(Cl)c3)c12 | 200
CN1CC(CN2C(=O)C3(COc4cc5c(cc43)OCO5)c3ccccc32)OC1=O (centres undefined) | 98 to 102
O=C(Cc1cccc(Br)c1)Nc1ccc(Sc2c(O)c3c(Cl)cc(Cl)cc3[nH]c2=O)cc1 | 292 to 296
CC[C@@H](C)[C@H](NC(=O)NCCNC(=O)OC(C)(C)C)C(=O)OC | 86 to 89
Cc1cc(C)cc(C(=O)c2c(-c3ccc(OCC(O)CNC(C)C)cc3)oc3ccccc23)c1 (centres undefined) | 154 to 157
O=C(Nc1nccs1)C1C(=O)Sc2cc(Cl)ccc21 (centres undefined) | 276 to 289
CCOc1cc(OCc2ccc(OCc3nc(-c4ccccc4)oc3C)cc2)ccc1CCC(=O)O | 135 to 136
Cc1cc(-c2cc(C(F)(F)F)n3ncc(C(=O)Nc4cccc(S(N)(=O)=O)c4)c3n2)ccc1C(F)(F)F | 245
CNCC1(CF)CCN(c2c(F)cc3c(=O)c(C(=O)O)cn(C4CC4)c3c2OC)C1 (centres undefined) | 208 to 210
O=C1CC[C@H]2N1CCN1C(=O)C[C@H]3CCCC[C@@]321 (relative stereo) | 135 to 136
O=C1NC(=C(Br)c2ccccc2)C(=O)C1=NO | 158

SMILES | melting point [°C]
Cn1nc(-c2nc(C#N)c(C#N)nc2-c2ccccc2)ccc1=O | 210 to 212
CCCCCCCCCCCCCCNCc1ccc(OCc2cccc(F)c2)cc1 | 58
CCNC(=NC#N)NCc1cccnc1 | 177 to 179
CN1CCN(C2CCN(c3ccc(Nc4ncc5cc6ccccc6n5n4)cc3)CC2)CC1 | 226 to 229
CCCCC1Oc2cc(C(=O)OC)ccc2NC1=O (centres undefined) | 139 to 140
c1ccc(-c2nc3ncccc3[nH]2)nc1 | 139 to 142
Cc1ccc(-c2ccc(S(=O)(=O)Nc3cc(C)no3)cc2)cc1 | 194 to 198
CCOC(=O)c1cccc(-c2coc3cc(O)c(O)cc3c2=O)c1 | 217 to 218
c1ccc2nn(-c3cscn3)cc2c1 | 146 to 147
Cc1nc2c(c(=O)[nH]1)-c1ccc(Cl)cc1C(c1ccccc1Cl)=NC2 | 277 to 279
CCN1CN2C(=N1)C(c1ccccc1Cl)=NCC1=C2S(=O)CC1 (centres undefined) | 199 to 200
CCc1csc2c(C(=O)O)c(=O)c3cc(F)c(N4CCNCC4)cc3n12 | 247 to 251
COc1ccc(-c2nc(=O)c3ccccc3o2)cc1 | 175 to 178
Cc1oc(-c2ccc(F)cc2)nc1CCOc1ccc(CN(O)C(N)=O)cc1 | 158 to 160
COc1ccc([N+](=O)[O-])c(/C=C/c2cc(/C=C/c3ccc4cc[nH]c4c3)n[nH]2)c1 | 104 to 109
CCCCN(CCCC)c1cc(OC)c(C=Cc2ccc(C=O)s2)c(OC)c1 | 105 to 106
COc1ccc2c(C(=O)C=[N+]=[N-])nn(Cc3ccc(Cl)c(Cl)c3)c(=O)c2c1 | 129 to 130
Nc1nc2ccccc2c2c1ncn2CCOCCCc1cccnc1 | 125 to 128
CCOC(=O)c1c[nH]nc1-c1ccc(Cl)cc1 | 95 to 100
COC1C(O)C(CO)OC1n1cnc(C(N)=O)c1N (centres undefined) | 114 to 117
CC(=O)N(CCC1CCCCN1CCC(C(N)=O)c1ccccc1Cl)C(C)C (centres undefined) | 140 to 141
CC(=O)CCC(=O)N1CCN(c2c(F)cc(N3CC(CNC(C)=O)OC3=O)cc2F)CC1 (centres undefined) | 52 to 56
N#Cc1c(-c2cccc(CN)c2)cc(-c2ccccc2O)nc1NC(=O)c1cccs1 | 203 to 205
O=C(O)COc1c(Cl)cc(Cl)cc1Cl | 180 to 183

SMILES | melting point [°C]
CC(C)Cc1nn(C)c(=O)c2cn(Cc3ccncc3)cc12 | 91 to 93
CC(=O)NCCc1cccc2ccc(OCCCO)cc12 | 141 to 142
O=P(c1ccccc1)(c1ccccc1)c1cc(P(=O)(c2ccccc2)c2ccccc2)nc(P(=O)(c2ccccc2)c2ccccc2)n1 | 235 to 236
COc1ccc(-c2nnc3c4ccccc4c(CNCCCC#N)nn23)cc1 | 117 to 119
CCCc1c(CSc2nnc(NC(=O)CC(=O)OCc3ccc(OC)cc3)s2)ccc(C(C)=O)c1O | 162 to 166
O=c1[nH]ncc(Cl)c1NCCCN1CCC(c2noc3cc(F)ccc23)CC1 | 198 to 200
C=CCc1c(O)c(C)cc2c1C(C)(C)CC1(CC(C)(C)c3cc(O)c(C)cc3O1)O2 (centres undefined) | 102 to 104
CCC(=O)Oc1ccc2c(c1)CCC(CN1CCC(O)(c3ccccc3)CC1)C2=O (centres undefined) | 170 to 172
Cc1cc2c(cc1C13CC1CCC3=Cc1ccc(C(=O)O)cc1)C(C)(C)CCC2(C)C (centres undefined) | 274 to 275
CCCCCCCCCCOc1ccc(-c2ccc(C(C)=O)cc2)cc1 | 102 to 104
Cc1ccc(S(=O)(=O)OCCC(=C(c2ccccc2)c2ccccc2)c2ccccc2)cc1 | 137 to 139
CCn1c(-c2c(Cl)cccc2Cl)nc(-c2ccnc(Cl)c2)c1-c1ccc(Cl)cc1 | 187 to 189
O=C1CCCCCN1CNC(=S)NCN1CCCC1=O | 147 to 148
Cc1ccc2c(=O)[nH]c(=O)n(C(C)C)c2c1 | 250 to 251
Cc1cc(C)c(Cc2ccc(=O)[nH]n2)c(C)c1 | 125 to 127
O=C(N[C@H]1CCN(C(=O)c2cc(C(F)(F)F)cc(C(F)(F)F)c2)[C@H](Cc2ccccc2)C1)c1ccnc2ccccc12 | 187
CC(C)CC1(CCCCCl)C(=O)Nc2c(Cl)cc(Cl)cc21 (centres undefined) | 93 to 94
COc1ccccc(NS(=O)(=O)c2ccc(C)cc2)c1=O | 163 to 164
COc1cc2c(c3c1OC(C)(C)C3)C(c1cccc(-c3ccc4ccccc4n3)c1)=NC(C)(C)C2 | 167 to 169
Nc1nc(Nc2ccc(N3CCOCC3)cc2)sc1C(=O)c1c(Cl)cccc1Cl | 245 to 247
Cc1nn(-c2ccc(C(F)(F)F)cn2)cc1COc1cc(C=O)n(C)n1 | 130 to 131
CN(Cc1cc2c(=O)c(C(=O)NCc3ccc(Cl)cc3)cn(C)c2o1)CC(O)c1ccco1 (centres undefined) | 94 to 101
